According to patent US20110135754A1, “CONTROL OF DISEASES IN CROPS” (priority 2008, published 2011):

How the values were obtained:
[1] = at 20 c; in water; cited from earlier work
[2] = tested on: rust; assay: Field spray of vanadyl citrate solution on an oats crop to control rust; assay type: in vivo; conditions: oats crop for stock feed, about 2 hectares, sprayed at approx. 150 mm height, approx. 7.5 grams of elemental vanadium per hectare; adjacent untreated crop failed to give any yield due to rust
Description: A solution containing vanadium in the form of vanadyl citrate was prepared. The solution was sprayed onto about 2 hectares of an oats crop for stock feed, that was in early stages of growth where the crop was approximately 150 mm in height. The spray was applied in a manner such that approximately 7.5 grams of elemental vanadium per hectare, was applied to the crop.

SMILES	solubility [1]	crop yield (cuttings delivered) of treated crop [2]
[O]=[V](=[O])[O][V](=[O])=[O] [Vanadium Pentoxide, vanadium pentoxide]	0.8 g/100 ml	–
O=C([O-])CC(O)(CC(=O)[O-])C(=O)[O-].[O]=[V+2] [vanadyl citrate]	–	delivered three cuttings
